Test results as given in US6713459B1, “Methods for the prophylactic and therapeutic treatment of cardiac tissue damage” (East Tennessee State University, priority 2000, dated 2004).
pKd: −log10 of the molar value. Where two headings read alike, the source gives them in different places.

Experiments:
[1] = tested on: rat hearts subjected to ischemia/reperfusion; assay: myocardial infarct size after LAD occlusion and reperfusion, TTC staining; type: in vivo, Sprague-Dawley rats; settings: 4 hr reperfusion; for infarct size/area at risk: mean±SEM
Method: (§1) Ischemia/reperfusion protocols were performed using Sprague-Dawley rats (Harlan Sprague-Dawley, Indianapolis, Indiana). Left anterior descending (LAD) coronary artery occlusion was performed by tying off the LAD artery near its origin using a suture. Glucan phosphate was employed in the ischemia reperfusion (I/R) studies.
Sprague-Dawley rats (250-300 g) were treated, with (1→3)-β-D-glucans at a concentration of 40 mg/kg one hour before the hearts were subjected to 45 minutes of occlusion of the left anterior descending (LAD) coronary artery, followed by reperfusion for 4 hours. At the completion of the experimental protocol, the heart was removed, rinsed free of blood, stained with 1% Evans Blue, and sectioned into five slices, followed by incubation in triphenyltetrazolium chloride (TTC) solution. Viable myocardium (risk area) was stained with TTC while the necrotic myocardium was pale white. The area of infarction on both sides of each slice was analyzed by an image analyzer (Alpha Imager 2000), corrected for each slice weight and summed for each left ventricle. The infarct areas were expressed as a percentage of risk area as well as a percentage of left ventricle and the risk areas were expressed as a percentage of left ventricle.
Glucan phosphate (40 mg/kg) was administered to rats via intravenous route 5 min. after the rat hearts were subjected to occlusion of the left afterior descending (LAD) coronary artery, followed by 4 hr. reperfusion. Subsequently, the hearts were harvested and the infarct size/area at risk was determined using TTC staining and image analysis as described previously. FIG. 19 illustrates results, with infarct size expressed as percentage of risk area and risk area expressed as percentage of the left ventricle.

[2] = tested on: NF-κB; assay: EMSA of nuclear NF-κB binding activity in rat myocardium after I/R; type: in vivo, Sprague-Dawley rats; settings: 40 mg/Kg one hr before ischemia (I45 or I15R30)
Method: Rats were pretreated with glucan (40 mg/Kg) for one hr. before being subjected to 45 min. of ischemia (I45), as well as 15 min. ischemia followed by 30 min. reperfusion (I15R30). Nuclear proteins were isolated and analyzed by EMSA. Results are expressed as means±SEM for 5 hearts at each time point. P<0.05 as compared to normal (N).
as §1
(§2) To investigate NF-κB activation in vivo, rat hearts were subjected to various periods of ischemia or ischemia and reperfusion (I/R). For example, levels of IκBα and phosphorylated IκBα proteins in cell cytoplasm following ischemia were evaluated by Western blot with anti-IκBα or antibody specific for the phosphorylated […] (FIG. 9a). NF-κB binding activity in the nucleus following onset of ischemia was analyzed by electrophoretic mobility shift assay (EMSA) (FIG. 10a). […]
NF-κB nuclear binding activity in rat myocardium after in vivo I/R was also determined. […]

[3] = tested on: IκBα; assay: Western blot of cytoplasmic IκBα in rat myocardium after I/R; type: in vivo, Sprague-Dawley rats; settings: 40 mg/Kg one hr before 15 min ischemia and 30 min reperfusion
Method: FIG. 15 is a graphic representation of effect of glucan on loss of IκBα from rat myocardial cytoplasm following I/R. Rats were pretreated with glucan (40 mg/Kg) for one hr. before being subjected to 15 min. of ischemia and 30 min. of reperfusion. Cytoplasmic proteins were isolated and levels of IκBα protein determined by Western blot analysis. Results were expressed as means±SEM for 5 hearts at each time point. P<0.05 as compared to normal (N).
as §1, §2

[4] = tested on: TNFα mRNA; assay: RT-PCR of TNFα mRNA in rat myocardium after I/R; type: in vivo, Sprague-Dawley rats; settings: 40 mg/Kg 1 hr before 15 min ischemia and 1 hr reperfusion
Method: FIG. 17 depicts RT-PCR analysis of total RNA obtained from rat myocardium pretreated with glucan (40 mg/Kg) for 1 hr. prior to 15 min. ischemia and 1 hr. reperfusion. TNFα and GAPDH are labeled at right to indicate the position of the corresponding RNA. M is a 100 bp DNA ladder. As indicated, pretreatment with glucan (I15′R1 hr+Glucan) decreases myocardial TNFα mRNA expression after I/R.
as §1
The inventors also investigated whether (1→3)-β-D-glucans regulate TNFα gene expression. […] (1→3)-β-D-glucan down-regulates LPS-induced TNFα mRNA expression in vivo.

[5] = tested on: cardiac myocyte apoptosis; assay: TUNEL assay of cardiac myocyte apoptosis after I/R; type: in vivo, Sprague-Dawley rats; settings: 40 mg/kg 1 hr before 30 min ischemia, 3 hr reperfusion; untreated I/R hearts 17.17±1.41%
Method: as §1
The effects of (1→3)-β-D-glucan on apoptosis were investigated using rats treated with (1-3)-β-D-glucan (40 mg/kg) 1 hr. before the. hearts were subjected to 30 min. of ischemia followed by 3 hr. reperfusion. Upon completion of the protocol, the hearts were removed, rinsed free of blood, and perfused with freshly prepared phosphate-buffered 4% formaldehyde. Heart segments distal to the ligation were horizontally sliced into 2 mm sections and fixed with phosphate-buffered 4% formaldehyde at 4° C. overnight. The terminal deoxynucleotidyl transferase-mediated dUTP nick end-labeling (TUNEL) technique (Gavrieli, Y., et al., J. Cell Biol. (1992) 119: 493-501) was used to quantitate the level of apoptosis, using an In Situ Cell Death Detection Kit (Roche Diagnostics) and manufacturer's instructions. Briefly, three slides from each block were evaluated to determine the percentage of TUNEL positive cells. For each slide, four fields were randomly examined using a defined rectangular field area with magnification of 200×. A total of 100 cells were counted in each field. […]

[6] = tested on: NF-κB; assay: EMSA of NF-κB nuclear binding activity in liver and lung after cecal ligation and puncture (CLP); type: in vivo, ICR/HSD mice; settings: for decrease of liver NF-κB binding activity / decrease of lung NF-κB binding activity: tissue 3 hours after CLP
Method: (§3) Nuclear extracts were prepared by homogenizing tissue in hypotonic buffer containing protease inhibitors and incubating the homogenates on ice for approximately 30 minutes with gentle agitation. After cells were lysed, nuclei were collected by centrifugation (14,000 revolutions/min for 5 minutes). Nuclear proteins were extracted by incubating the nuclear fraction on ice for 30 minutes in hypertonic salt buffer containing protease inhibitors. Nuclear extract supernatant was harvested after centrifugation, then stored at −80° C. Protein was quantified by the BCA microprotein assay (Pierce, Rockford, Ill.).
(§4) The electrophoretic mobility shift assay (EMSA) was performed using double-stranded consensus binding site oligonucleotides for NF-κB and NF-IL6 (C/EBP, CCAAT enhancer binding protein), obtained from Santa Cruz Biotechnology (Santa Cruz, Calif.). Oligonucleotides were end-labeled with [γ-^32P]-labeled adenosine triphosphate (Amersham, Arlington Heights, Ill.) with T4 polynucleotide kinase (Promega, Madison, Wis.), using methods known to those of skill in the art. Binding assays were performed in 10 μl of binding reaction mixture containing 10 μg of nuclear proteins and [γ-^32P]-labeled NF-κB or NF-IL6 oligonucleotides. The binding reaction mixture was incubated at room temperature for 20 minutes, then electrophoresed on 4% non-denaturing polyacrylamide gel electrophoresis (PAGE) gels. Specificity of binding was confirmed by addition of a 10-fold excess of cold oligonucleotide to separate reaction mixtures. A 10-fold excess of cold oligonucleotide containing the AP-1 binding site was added to separate reaction mixtures as an additional control. After PAGE, gels were dried and exposed to Kodak X-omat® film at −70° C. Autoradiograms were quantified by scanning densitometry with a Sun IPC workstation running Bioimage® software (Millipore, Bedford, Mass.).
(§5) In studies of (1→3)-β-D-glucan effects on tissue damage due to sepsis, blood (˜0.3 ml) was obtained by open heart puncture from groups of 3 ICR/HSD mice subjected to cecal ligation and puncture (CLP), performed according to the method of Baker et al., Suryery (1983) 94: 331-335, as described by Ayala et al., Circ. Shock (1992) 36: 191-199. Mice subjected to laparotomy only (LO) served as surgical and anesthesia controls. Negative controls were not subjected to either procedure. Blood samples were collected from each group at 1, 2, 4, 8, and 24 hours after surgery. Samples were inoculated into prereduced anaerobically sterilized chopped meat carbohydrate broth (Carr-Scarborough, Stone Mountain, Ga.) under a constant stream of anaerobic carbon dioxide in a VPI Inoculator (Bellco Glass, Vineland, N.J.). After mixing, 1 ml of inoculated broth was aseptically removed from each 6-ml rubber-stoppered anaerobic tube into a sterile loose-capped aerobic culture tube. Both aerobic and anaerobic culture tubes were incubated at 37° C. for 72 hours.
(§6) In pretreatment protocols, 45 mice were randomly divided into 3 groups of 15 mice per group. Group 1 received isovolumetric saline solution intraperitoneally 1 hour before CLP. Group 2 received glucan phosphate (1 mg/mouse=50 mg/kg, intraperitoneally) 1 hour prior to CLP. Group 3 received scleroglucan (1 mg/mouse=50 mg/kg, intraperitoneally) 1 hour prior to CLP. To assess tissue transcription factor activation and cytokine messenger RNA (mRNA) levels, liver and lung tissue were harvested from 5 mice per group at 3 hours after surgery. […] Laparoscopy-only (LO) controls and negative controls received the same saline, glucan phosphate, and scleroglucan treatment as CLP mice.
(§7) In post-treatment protocols, 30 mice were subjected to CLP. These 30 mice were then randomly divided into 2 groups of 15 mice per group. Group 1 received isovolumetric saline solution intravenously 15 minutes post surgery. Group 2 received glucan phosphate (1 mg/mouse=50 mg/kg, intravenously) 15 minutes postsurgery. […]

[7] = tested on: NF-IL6; assay: EMSA of NF-IL6 nuclear binding activity in liver and lung after CLP; type: in vivo, ICR/HSD mice; settings: for decrease of liver NF-IL6 binding activity / decrease of lung NF-IL6 binding activity: tissue 3 hours after CLP
Method: as §3, §4, §5, §6, §7

[8] = tested on: ICR/HSD mice subjected to CLP (polymicrobial sepsis); assay: survival of mice with polymicrobial sepsis induced by CLP; type: in vivo; settings: for long-term survival rate: CLP control 20%
Method: as §5, §6
In post-treatment protocols, 30 mice were subjected to CLP. These 30 mice were then randomly divided into 2 groups of 15 mice per group. […]
(§8) Survival trends were compared with the Cox proportional hazard and log-rank procedures. […] Differences in bacteremia between LO and CLP groups were assessed with exact probability level determinations. […]

[9] = molecular target: macrophage (1→3)-β-D-Glucan receptor; settings: cited from earlier work
[10] = tested on: TNF-α mRNA; assay: RT-PCR of TNF-α mRNA levels in liver and lung after CLP; type: in vivo, ICR/HSD mice
Method: (§9) Cytokine reverse transcriptase-polymerase chain reaction (RT-PCR) assays were performed using standard techniques known to those of skill in the art. Upstream and downstream primers for murine TNF-α and IL-6 were used to detect presence of those cytokines. Reduced glyceraldehyde phosphate dehydrogenase (GAPDH) was used as the gene transcript control.
as §5
(§10) In pretreatment protocols, 45 mice were randomly divided into 3 groups of 15 mice per group. Group 1 received isovolumetric saline solution intraperitoneally 1 hour before CLP. Group 2 received glucan phosphate (1 mg/mouse=50 mg/kg, intraperitoneally) 1 hour prior to CLP. Group 3 received scleroglucan (1 mg/mouse=50 mg/kg, intraperitoneally) 1 hour prior to CLP. […]
as §8

[11] = tested on: IL-6 mRNA; assay: RT-PCR of IL-6 mRNA levels in liver and lung after CLP; type: in vivo, ICR/HSD mice
Method: as §9, §5, §10, §8

[12] = pretreatment 50 mg/kg 1 hour before CLP
[13] = pretreatment 50 mg/kg, 3 hours after CLP
[14] = posttreatment 50 mg/kg intravenously 15 minutes after CLP
[15] = posttreatment 50 mg/kg intravenously 15 minutes post surgery

In the case of (1→3)-β-D-glucan, the “infarct size/area at risk” value ([1]; 40 mg/kg one hour before 45 min LAD occlusion, untreated 48.82±3.03%) was 25.86±2.33%, the “effect on I/R induced myocardial NF-κB binding activity” value [2] was “markedly reduced, but did not completely inhibit” and the “effect on cytoplasmic IκBα after I/R” value [3] was “prevent loss”. The “effect on I/R increase in TNFα mRNA levels” value [4] was “significantly inhibited” and the “apoptotic cell nuclei (TUNEL positive)” value [5] was 3.33±0.71%.

With scleroglucan the “decrease of liver NF-κB binding activity” value [6, 12] was 54%, the “effect on lung NF-κB nuclear binding activity” value [6, 13] was “inhibited” and the “decrease of liver NF-IL6 binding activity” value [7, 12] was 38%. The “effect on lung NF-IL6 nuclear binding activity” value [7, 13] was “inhibited”, the “effect on long-term survival” value ([8]; 50 mg/kg intraperitoneally 1 hour before CLP) was “increased long-term survival” and the pKd ([9]; high affinity, read-out: affinity for the (1→3)-β-D-glucan receptor) was 7.96.

In the case of glucan phosphate, the “decrease of liver NF-κB binding activity” value [6, 14] was 42%, the “decrease of lung NF-κB binding activity” value [6, 14] was 54% and the “decrease of liver NF-κB binding activity” value [6, 12] was 58%. For the same substance, the “decrease of lung NF-κB binding activity” value [6, 12] was 81%, the “decrease of liver NF-IL6 binding activity” value [7, 14] was 95% and the “decrease of lung NF-IL6 binding activity” value [7, 14] was 63%. For the same substance, the “decrease of liver NF-IL6 binding activity” value [7, 12] was 77%, the “decrease of lung NF-IL6 binding activity” value [7, 12] was 68% and the “suppression of hepatic TNF-α mRNA levels relative to CLP controls” value [10, 15] was 31%. For the same substance, the “suppression of lung TNF-α mRNA levels relative to CLP controls” value [10, 15] was 28%, the “suppression of hepatic TNF-α mRNA levels relative to CLP controls” value [10, 13] was 44% and the “effect on hepatic IL-6 mRNA levels” value [11, 15] was “not altered”. The “suppression of lung IL-6 mRNA levels relative to CLP controls” value [11, 15] was 30%, the “suppression of hepatic IL-6 mRNA levels relative to CLP controls” value [11, 13] was 49% and the long-term survival rate ([8]; single posttreatment injection 50 mg/kg intravenously 15 minutes after CLP) was 65%. The long-term survival rate ([8]; single prophylactic injection 50 mg/kg intraperitoneally 1 hour before CLP) was 65%, the “reduction of infarct size/area at risk compared to control IR group” value ([1]; 40 mg/kg intravenously 5 min after LAD occlusion) was 53% and the “infarct size/area at risk” value ([1]; 40 mg/kg intravenously 5 min after LAD occlusion, control IR 51.03±3.69%) was 24.39±2.00%. For the same substance, the pKd ([9]; low affinity, read-out: affinity for the macrophage (1→3)-β-D-glucan receptor) was 4.62.
